Results as given in patent US20150337013A1, “NOVEL ANTIBACTERIAL AGENTS FOR THE TREATMENT OF GRAM POSITIVE INFECTIONS” (priority 2008, published 2015).
Like-named read-outs stand apart in the source and are kept apart here.

Assays:
[1] = system: Clostridium difficile
[2] = system: Enterococcus faecalis EFS.312, Daptomycin resistant mutant (EFA); format: cell-based; conditions: MHBc with 50 mg/L calcium, 18-20 hours at 37° C.
Method in brief: (§1)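 CLSI M7-A7 broth microdilution, modified: MHB + 50 mg/L Ca, 5×10^5 bacteria/well, 2-fold dilutions, DMSO ≤1%, 18-20 h, 37° C, 200 rpm. Growth = visible turbidity or OD600 ≥0.1; MIC = lowest conc. without visible turbidity, μg/mL.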

[3] = system: Enterococcus faecium EFM.384, Daptomycin resistant mutant (14-A); format: cell-based; conditions: MHBc with 50 mg/L calcium, 18-20 hours at 37° C.
Method in brief: as §1

[4] = system: Staphylococcus aureus SAU.278, Daptomycin resistant mutant (D10); format: cell-based; conditions: MHBc with 50 mg/L calcium, 18-20 hours at 37° C.
Method in brief: as §1

[5] = system: Staphylococcus aureus SAU.399 (ATCC 43300), Methicillin and Oxacillin Resistant; format: cell-based
Method in brief: as §1

[6] = system: Enterococcus faecalis EFS.201 (ATCC 49452); format: cell-based
Method in brief: as §1

[7] = system: Enterococcus faecium EFM.14 (ATCC 6569); format: cell-based
Method in brief: as §1

[8] = system: Staphylococcus aureus SAU.42 (ATCC 29213); format: cell-based
Method in brief: as §1

[9] = MHBc with 50 mg/L calcium, 18-20 hours at 37° C.

SMILES | C. diff MIC90 [1] | Efs312 MIC [2] | Efm384 MIC [3] | Sa278 MIC [4] | Sa399 MIC ([5]; ATCC 43300) | Efs201 MIC ([6]; ATCC 49452) | Efm14 MIC ([7]; ATCC 6569) | Sa42 MIC ([8]; ATCC 29213) | Sa399 MIC [5, 9] | Efs201 MIC [6, 9] | Efm14 MIC [7, 9] | Sa42 MIC [8, 9]
CCCCCCCCCCC(=O)N[C@@H](Cc1c[nH]c2ccccc12)C(=O)N[C@H](CC(N)=O)C(=O)N[C@@H](CC(=O)O)C(=O)N[C@@H]1C(=O)NCC(=O)N[C@@H](CCCN)C(=O)N[C@@H](CC(=O)O)C(=O)N[C@H](C)C(=O)N[C@@H](CC(=O)O)C(=O)NCC(=O)N[C@H](CO)C(=O)N[C@@H]([C@H](C)CC(=O)O)C(=O)N[C@@H](CC(=O)c2ccccc2N)C(=O)O[C@@H]1C [Compound 2] | 4 µg/mL | 32 µg/mL | >32 µg/mL | 8 µg/mL | 0.5 µg/mL | 2 µg/mL | 2 µg/mL | 2 µg/mL |  |  |  | 
CCCCCCCCCCCCC(=O)N[C@@H](Cc1c[nH]c2ccccc12)C(=O)N[C@H](CC(N)=O)C(=O)N[C@@H](CC(=O)O)C(=O)N[C@@H]1C(=O)NCC(=O)N[C@@H](CCCN)C(=O)N[C@@H](CC(=O)O)C(=O)N[C@H](C)C(=O)N[C@@H](CC(=O)O)C(=O)NCC(=O)N[C@H](CO)C(=O)N[C@@H]([C@H](C)CC(=O)O)C(=O)N[C@@H](CC(=O)c2ccccc2N)C(=O)O[C@@H]1C [Compound 5] | 8 µg/mL | 8 µg/mL | 8 µg/mL | 2 µg/mL | 0.5 µg/mL | 0.5 µg/mL | 0.5 µg/mL | 0.5 µg/mL |  |  |  | 
CCCCCCCCCCCCCC(=O)N[C@@H](Cc1c[nH]c2ccccc12)C(=O)N[C@H](CC(N)=O)C(=O)N[C@@H](CC(=O)O)C(=O)N[C@@H]1C(=O)NCC(=O)N[C@@H](CCCN)C(=O)N[C@@H](CC(=O)O)C(=O)N[C@H](C)C(=O)N[C@@H](CC(=O)O)C(=O)NCC(=O)N[C@H](CO)C(=O)N[C@@H]([C@H](C)CC(=O)O)C(=O)N[C@@H](CC(=O)c2ccccc2N)C(=O)O[C@@H]1C [Compound 6] | 16 µg/mL | 4 µg/mL | 4 µg/mL | 2 µg/mL | 0.25 µg/mL | 0.25 µg/mL | 0.5 µg/mL | 1 µg/mL |  |  |  | 
CCCCCCCCCCCCCCC(=O)N[C@@H](Cc1c[nH]c2ccccc12)C(=O)N[C@H](CC(N)=O)C(=O)N[C@@H](CC(=O)O)C(=O)N[C@@H]1C(=O)NCC(=O)N[C@@H](CCCN)C(=O)N[C@@H](CC(=O)O)C(=O)N[C@H](C)C(=O)N[C@@H](CC(=O)O)C(=O)NCC(=O)N[C@H](CO)C(=O)N[C@@H]([C@H](C)CC(=O)O)C(=O)N[C@@H](CC(=O)c2ccccc2N)C(=O)O[C@@H]1C [Compound 7] | 16 µg/mL | 4 µg/mL | 4 µg/mL | 2 µg/mL | 0.5 µg/mL | 0.25 µg/mL | 0.5 µg/mL | 1 µg/mL |  |  |  | 
CC(C)CCCCCCCCCC(=O)N[C@@H](Cc1c[nH]c2ccccc12)C(=O)N[C@H](CC(N)=O)C(=O)N[C@@H](CC(=O)O)C(=O)N[C@@H]1C(=O)NCC(=O)N[C@@H](CCCN)C(=O)N[C@@H](CC(=O)O)C(=O)N[C@H](C)C(=O)N[C@@H](CC(=O)O)C(=O)NCC(=O)N[C@H](CO)C(=O)N[C@@H]([C@H](C)CC(=O)O)C(=O)N[C@@H](CC(=O)c2ccccc2N)C(=O)O[C@@H]1C [Compound 10] | 1 µg/mL | >32 µg/mL | 4 µg/mL | 1 µg/mL | 0.25 µg/mL | 0.13 µg/mL | 1 µg/mL | 0.25 µg/mL |  |  |  | 
CC(C)CCCCCCCCCCC(=O)N[C@@H](Cc1c[nH]c2ccccc12)C(=O)N[C@H](CC(N)=O)C(=O)N[C@@H](CC(=O)O)C(=O)N[C@@H]1C(=O)NCC(=O)N[C@@H](CCCN)C(=O)N[C@@H](CC(=O)O)C(=O)N[C@H](C)C(=O)N[C@@H](CC(=O)O)C(=O)NCC(=O)N[C@H](CO)C(=O)N[C@@H]([C@H](C)CC(=O)O)C(=O)N[C@@H](CC(=O)c2ccccc2N)C(=O)O[C@@H]1C [Compound 11] | 1 µg/mL | 16 µg/mL | 4 µg/mL | 0.5 µg/mL | 0.25 µg/mL | 1 µg/mL | 1 µg/mL | 0.125 µg/mL |  |  |  | 
CCCCCC1CCC(NC(=O)N[C@@H](Cc2c[nH]c3ccccc23)C(=O)N[C@H](CC(N)=O)C(=O)N[C@@H](CC(=O)O)C(=O)N[C@@H]2C(=O)NCC(=O)N[C@@H](CCCN)C(=O)N[C@@H](CC(=O)O)C(=O)N[C@H](C)C(=O)N[C@@H](CC(=O)O)C(=O)NCC(=O)N[C@H](CO)C(=O)N[C@@H]([C@H](C)CC(=O)O)C(=O)N[C@@H](CC(=O)c3ccccc3N)C(=O)O[C@@H]2C)CC1 (some centres unmarked) [Compound 17] | 1 µg/mL | >32 µg/mL | 16 µg/mL | 0.25 µg/mL |  |  |  |  | 0.25 µg/mL | 1 µg/mL | 1 µg/mL | 0.25 µg/mL
CCCCCCC12CCC(C(=O)N[C@@H](Cc3c[nH]c4ccccc34)C(=O)N[C@H](CC(N)=O)C(=O)N[C@@H](CC(=O)O)C(=O)N[C@@H]3C(=O)NCC(=O)N[C@@H](CCCN)C(=O)N[C@@H](CC(=O)O)C(=O)N[C@H](C)C(=O)N[C@@H](CC(=O)O)C(=O)NCC(=O)N[C@H](CO)C(=O)N[C@@H]([C@H](C)CC(=O)O)C(=O)N[C@@H](CC(=O)c4ccccc4N)C(=O)O[C@@H]3C)(CC1)CC2 [Compound 23] | 0.5 µg/mL | 4 µg/mL | 4 µg/mL | 1 µg/mL | 0.5 µg/mL | 0.5 µg/mL | 0.5 µg/mL | 0.50 µg/mL |  |  |  | 
C[C@H](CC(=O)O)[C@@H]1NC(=O)[C@@H](CO)NC(=O)CNC(=O)[C@H](CC(=O)O)NC(=O)[C@@H](C)NC(=O)[C@H](CC(=O)O)NC(=O)[C@H](CCCN)NC(=O)CNC(=O)[C@@H](NC(=O)[C@H](CC(=O)O)NC(=O)[C@@H](CC(N)=O)NC(=O)[C@H](Cc2c[nH]c3ccccc23)NC(=O)CCCCC2CCCCC2)[C@@H](C)OC(=O)[C@H](CC(=O)c2ccccc2N)NC1=O [Compound 24] | 4 µg/mL | >32 µg/mL | 32 µg/mL | 8 µg/mL | 1 µg/mL | 2 µg/mL | 4 µg/mL | 1 µg/mL |  |  |  | 
C[C@H](CC(=O)O)[C@@H]1NC(=O)[C@@H](CO)NC(=O)CNC(=O)[C@H](CC(=O)O)NC(=O)[C@@H](C)NC(=O)[C@H](CC(=O)O)NC(=O)[C@H](CCCN)NC(=O)CNC(=O)[C@@H](NC(=O)[C@H](CC(=O)O)NC(=O)[C@@H](CC(N)=O)NC(=O)[C@H](Cc2c[nH]c3ccccc23)NC(=O)CCCCCCC2CCCCC2)[C@@H](C)OC(=O)[C@H](CC(=O)c2ccccc2N)NC1=O [Compound 25] | 1 µg/mL | 16 µg/mL | 8 µg/mL | 1 µg/mL | 0.5 µg/mL | 0.5 µg/mL | 1 µg/mL | 0.5 µg/mL |  |  |  | 
C[C@H](CC(=O)O)[C@@H]1NC(=O)[C@@H](CO)NC(=O)CNC(=O)[C@H](CC(=O)O)NC(=O)[C@@H](C)NC(=O)[C@H](CC(=O)O)NC(=O)[C@H](CCCN)NC(=O)CNC(=O)[C@@H](NC(=O)[C@H](CC(=O)O)NC(=O)[C@@H](CC(N)=O)NC(=O)[C@H](Cc2c[nH]c3ccccc23)NC(=O)CCCCCC2CCCCC2)[C@@H](C)OC(=O)[C@H](CC(=O)c2ccccc2N)NC1=O [Compound 26] | 2 µg/mL | >32 µg/mL | 16 µg/mL | 2 µg/mL | 0.5 µg/mL | 1 µg/mL | 2 µg/mL | 1 µg/mL |  |  |  | 
CCc1ccc(CCC(=O)N[C@@H](Cc2c[nH]c3ccccc23)C(=O)N[C@H](CC(N)=O)C(=O)N[C@@H](CC(=O)O)C(=O)N[C@@H]2C(=O)NCC(=O)N[C@@H](CCCN)C(=O)N[C@@H](CC(=O)O)C(=O)N[C@H](C)C(=O)N[C@@H](CC(=O)O)C(=O)NCC(=O)N[C@H](CO)C(=O)N[C@@H]([C@H](C)CC(=O)O)C(=O)N[C@@H](CC(=O)c3ccccc3N)C(=O)O[C@@H]2C)cc1 [Compound 29] | 16 µg/mL | >32 µg/mL | >32 µg/mL | >32 µg/mL | 8 µg/mL | >32 µg/mL | >32 µg/mL | 8 µg/mL |  |  |  | 
CCCCCCOc1ccc(C(=O)N[C@@H](Cc2c[nH]c3ccccc23)C(=O)N[C@H](CC(N)=O)C(=O)N[C@@H](CC(=O)O)C(=O)N[C@@H]2C(=O)NCC(=O)N[C@@H](CCCN)C(=O)N[C@@H](CC(=O)O)C(=O)N[C@H](C)C(=O)N[C@@H](CC(=O)O)C(=O)NCC(=O)N[C@H](CO)C(=O)N[C@@H]([C@H](C)CC(=O)O)C(=O)N[C@@H](CC(=O)c3ccccc3N)C(=O)O[C@@H]2C)cc1 [Compound 35] | 2 µg/mL | >32 µg/mL | 32 µg/mL | 4.00 µg/mL |  |  |  |  | 0.5 µg/mL | 1.0 µg/mL | 2 µg/mL | 0.5 µg/mL
